Assay results published in the supplement of paper PMC10307832.

compound: CC1(C)CCC(CN2CCN(c3ccc(C(=O)NS(=O)(=O)c4ccc(NCC5CCOCC5)c([N+](=O)[O-])c4)c(Oc4cnc5[nH]ccc5c4)c3)CC2)=C(c2ccc(Cl)cc2)C1 [Venetoclax] + O=C(c1cc(Cc2n[nH]c(=O)c3ccccc23)ccc1F)N1CCN(C(=O)C2CC2)CC1 [Olaparib] (partner 8 µM); experiment: relative viability (nuclei count vs DMSO), 5 days (fraction); higher = more cells survive; details: first compound 0.01 µM
Method in brief: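 Lung cancer cell lines in 1536-well plates got either a single drug or a fixed anchor-drug dose together with five library-drug doses (not always all listed) in √10 steps, by pin tool, on the day after seeding. Nuclei were counted after 5 days, and relative viability is the treated-to-vehicle ratio of nuclei counts. Values are medians of duplicate plates.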

Cell Line | relative viability
NCI-H2126 | 0.85
HCC-44 | 1.05
NCI-H1734 | 0.598
NCI-H650 | 0.356
LK-2 | 0.934
HARA | 0.803
LC-2-ad | 0.735
LXF-289 | 1.07
ChaGo-K-1 | 0.341
NCI-H2170 | 0.57
NCI-H322M | 0.738
HCC-78 | 0.718
BEN | 1.07
HCC-15 | 0.607
HCC-827 | 0.647
NCI-H460 | 0.39
LU99A | 0.301
NCI-H2085 | 0.676
A-427 | 0.709
NCI-H838 | 0.784
NCI-H1792 | 0.286
NCI-H596 | 0.764
NCI-H3122 | 0.644
NCI-H1395 | 0.451
201T | 0.822
NCI-H1993 | 1.03
HOP-62 | 0.318
NCI-H1355 | 0.772

same assay, conditions: first compound 0.03162 µM

Cell Line | relative viability
NCI-H1666 | 0.741
NCI-H1755 | 0.873
EPLC-272H | 0.697
LCLC-97TM1 | 0.297
PC-3 [JPC-3] | 1.19
LOU-NH91 | 0.88
NCI-H647 | 0.698
NCI-H23 | 0.26
EMC-BAC-2 | 0.554
NCI-H2126 | 0.936
HCC-44 | 1.01
NCI-H1734 | 0.656
NCI-H650 | 0.425
LK-2 | 0.98
HARA | 0.993
LC-2-ad | 0.696
LXF-289 | 1.09
ChaGo-K-1 | 0.48
NCI-H2170 | 0.639

Cell Line | relative viability
NCI-H322M | 0.799
HCC-78 | 0.78
BEN | 1.21
HCC-15 | 0.754
HCC-827 | 0.703
NCI-H460 | 0.414
LU99A | 0.287
NCI-H2085 | 0.758
A-427 | 0.709
NCI-H838 | 0.758
NCI-H1792 | 0.463
NCI-H596 | 0.709
NCI-H3122 | 0.671
NCI-H1395 | 0.484
201T | 0.868
NCI-H1993 | 0.952
HOP-62 | 0.622
NCI-H1355 | 0.815

same assay, conditions: first compound 0.1 µM

Cell Line | relative viability
NCI-H1666 | 0.711
NCI-H1755 | 0.917
EPLC-272H | 0.803
LCLC-97TM1 | 0.37
PC-3 [JPC-3] | 1.21
LOU-NH91 | 0.965
NCI-H647 | 0.424
NCI-H23 | 0.367
EMC-BAC-2 | 0.5
NCI-H2126 | 0.838
HCC-44 | 0.919
NCI-H1734 | 0.662
NCI-H650 | 0.375
LK-2 | 0.848
LC-2-ad | 0.664
LXF-289 | 1.1
ChaGo-K-1 | 0.437
NCI-H2170 | 0.573

Cell Line | relative viability
NCI-H322M | 0.76
HCC-78 | 0.879
BEN | 0.97
HCC-15 | 0.75
HCC-827 | 0.642
NCI-H460 | 0.359
LU99A | 0.255
NCI-H2085 | 0.744
A-427 | 0.821
NCI-H838 | 0.824
NCI-H1792 | 0.384
NCI-H596 | 0.711
NCI-H3122 | 0.637
NCI-H1395 | 0.447
201T | 0.811
NCI-H1993 | 0.986
HOP-62 | 0.359
NCI-H1355 | 0.774

same assay, conditions: first compound 0.3162 µM

Cell Line | relative viability
NCI-H1666 | 0.759
NCI-H1755 | 0.832
EPLC-272H | 0.786
LCLC-97TM1 | 0.323
PC-3 [JPC-3] | 1.15
LOU-NH91 | 0.919
NCI-H647 | 0.564
NCI-H23 | 0.376
EMC-BAC-2 | 0.497
NCI-H2126 | 0.915
HCC-44 | 0.971
NCI-H1734 | 0.634
NCI-H650 | 0.383
LK-2 | 0.619
HARA | 0.814
LC-2-ad | 0.702
LXF-289 | 0.993
ChaGo-K-1 | 0.5
NCI-H2170 | 0.615

Cell Line | relative viability
NCI-H322M | 0.764
HCC-78 | 0.871
BEN | 1.1
HCC-15 | 0.68
HCC-827 | 0.603
NCI-H460 | 0.44
LU99A | 0.283
NCI-H2085 | 0.755
A-427 | 0.657
NCI-H838 | 0.776
NCI-H1792 | 0.561
NCI-H596 | 0.696
NCI-H3122 | 0.667
NCI-H1395 | 0.473
201T | 0.846
NCI-H1993 | 0.99
HOP-62 | 0.203
NCI-H1355 | 0.734

same assay, conditions: first compound 1 µM

Cell Line | relative viability
NCI-H1666 | 0.62
NCI-H1755 | 0.831
EPLC-272H | 0.83
LCLC-97TM1 | 0.365
PC-3 [JPC-3] | 1.04
LOU-NH91 | 0.856
NCI-H647 | 0.535
NCI-H23 | 0.304
EMC-BAC-2 | 0.471
NCI-H2126 | 0.913
HCC-44 | 0.983
NCI-H1734 | 0.634
NCI-H650 | 0.365
LK-2 | 0.716
HARA | 0.822
LC-2-ad | 0.708
LXF-289 | 0.94
ChaGo-K-1 | 0.439
NCI-H2170 | 0.591
